# Biological target: T1, KRAS (aa 1-169) G12C, C51S, C80L, C118S (Homo sapiens, UniProt P01116, C118S/C51S/C80L/G12C)
# T1 construct: The KRAS (aa 1-169) G12C, C51S, C80L, C118S with a His-tag; made in house
# Assay: KRAS G12C SOS1-mediated nucleotide exchange / GST-cRaf RBD binding FRET assay
# Type: biochemical
# Settings: GDP-loaded KRAS G12C pre-incubated with compound at 24° C. for 3 hrs; SOS1, GTPγS and GST-cRaf RBD added; FRET 665 nm/620 nm
# Method: Biochemical Functional Assay:
# The KRAS (aa 1-169) G12C, C51S, C80L, C118S with a His-tag was expressed, purified and loaded with GDP in house. All protein and substrate solutions were prepared in assay buffer containing 25 mM HEPES pH7.5, 10 mM MgCl2, and 0.01% Triton X-100. Purified GDP-loaded KRAS (aa 1-169) G12C, C51S, C80L, C118S protein was pre-incubated with a serially diluted compound at 24° C. for 3 hrs. Purified SOS1 (aa 564-1049) protein, GTPγS (Sigma) and GST-cRaf RBD (aa 1-149) were then added to each well and incubated at 24° C. for additional 3 hrs. […] Following the incubation, Mab Anti-6HIS-Tb cryptate (Cisbio) and Mab Anti GST-XL665 (Cisbio) were added and further incubated at 24° C. for 3 hrs. The binding interaction between active GTPγS KRAS G12C and GST-cRaf RBD brings the Tb and XL665 into close proximity enabling an increased FRET signal (Ex337 nm, Em665 nm/620 nm). The inhibition percentage of nucleotide exchange reaction in presence of increasing concentrations of compounds was calculated based on the ratio of fluorescence at 665 nm to that at 620 nm detected on a BMG PHERAstar FSX instrument. The IC50 value of each compound was calculated from fitting the data to the four-parameter logistic model by Dotmatics.
# T1 sequence (P01116 1-169 isoform P01116-2 G12C/C51S/C80L/C118S): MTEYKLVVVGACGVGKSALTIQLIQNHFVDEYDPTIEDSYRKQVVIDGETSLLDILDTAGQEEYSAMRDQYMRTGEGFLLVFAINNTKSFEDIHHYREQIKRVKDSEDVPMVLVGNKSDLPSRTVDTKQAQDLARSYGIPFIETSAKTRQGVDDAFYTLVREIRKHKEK
row,SMILES,IC50 [nM]
1,"C=CC(=O)N1CCN(c2nc(OC[C@@H]3CCCN3C)nc3c2CN(Cc2cc(O)ccc2F)C3)C[C@@H]1CC#N [Example 22, 2-((S)-1-acryloyl-4-(6-(2-fluoro-5-hydroxybenzyl)-2-(((S)-1-methylpyrrolidin-2-yl)methoxy)-6,7-dihydro-5H-pyrrolo[3,4-d]pyrimidin-4-yl)piperazin-2-yl)acetonitrile]",9.63
2,"C=CC(=O)N1CCN(c2nc(OC[C@@H]3CCCN3C)nc3c2CN(Cc2c(O)cccc2F)C3)C[C@@H]1CC#N [Example 23, 2-((S)-1-acryloyl-4-(6-(2-fluoro-6-hydroxybenzyl)-2-(((S)-1-methylpyrrolidin-2-yl)methoxy)-6,7-dihydro-5H-pyrrolo[3,4-d]pyrimidin-4-yl)piperazin-2-yl)acetonitrile]",28.1
3,"C=CC(=O)N1CCN(c2nc(OC[C@@H]3CCCN3C)nc3c2CN(Cc2cccc4cccc(O)c24)C3)C[C@@H]1CC#N [Example 24, 2-((S)-1-acryloyl-4-(6-((8-hydroxynaphthalen-1-yl)methyl)-2-(((S)-1-methylpyrrolidin-2-yl)methoxy)-6,7-dihydro-5H-pyrrolo[3,4-d]pyrimidin-4-yl)piperazin-2-yl)acetonitrile]",101
4,"C=CC(=O)N1CCN(c2nc(OC[C@@H]3CCCN3C)nc3c2CN(Cc2cc(O)cc4ccccc24)C3)C[C@@H]1CC#N [Example 25, 2-((S)-1-acryloyl-4-(6-((3-hydroxynaphthalen-1-yl)methyl)-2-(((S)-1-methylpyrrolidin-2-yl)methoxy)-6,7-dihydro-5H-pyrrolo[3,4-d]pyrimidin-4-yl)piperazin-2-yl)acetonitrile]",3.27
5,C=CC(=O)N1CCN(c2nc(OC[C@@H]3CCCN3C)nc3c2CN(c2ccc4ccccc4c2)C3)C[C@@H]1CC#N [Example 26],1080
6,"C=CC(=O)N1CCN(c2nc(OC[C@@H]3CCCN3C)nc3c2CN(c2cccc4c2CCC4)C3)C[C@@H]1CC#N [Example 27, 2-((S)-1-acryloyl-4-(6-(2,3-dihydro-1H-inden-4-yl)-2-(((S)-1-methylpyrrolidin-2-yl)methoxy)-6,7-dihydro-5H-pyrrolo[3,4-d]pyrimidin-4-yl)piperazin-2-yl)acetonitrile]",3720
7,"C=CC(=O)N1CCN(c2nc(OC[C@@H]3CCCN3C)nc3c2CN(c2cccc4cccc(C)c24)C3)C[C@@H]1CC#N [Example 28, 2-((S)-1-acryloyl-4-(6-(8-methylnaphthalen-1-yl)-2-(((S)-1-methylpyrrolidin-2-yl)methoxy)-6,7-dihydro-5H-pyrrolo[3,4-d]pyrimidin-4-yl)piperazin-2-yl)acetonitrile]",178
8,"C=CC(=O)N1CCN(c2nc(OC[C@@H]3CCCN3C)nc3c2CN(C(=O)c2cc(O)cc4ccccc24)C3)C[C@@H]1CC#N [Example 29, 2-((S)-1-acryloyl-4-(6-(3-hydroxy-1-naphthoyl)-2-(((S)-1-methylpyrrolidin-2-yl)methoxy)-6,7-dihydro-5H-pyrrolo[3,4-d]pyrimidin-4-yl)piperazin-2-yl)acetonitrile]",2.42
9,"C=CC(=O)N1CCN(c2nc(OC[C@@H]3CCCN3C)nc3c2CN(C(=O)c2cccc4cccc(Cl)c24)C3)C[C@@H]1CC#N [Example 30, 2-((S)-1-acryloyl-4-(6-(8-chloro-1-naphthoyl)-2-(((S)-1-methylpyrrolidin-2-yl)methoxy)-6,7-dihydro-5H-pyrrolo[3,4-d]pyrimidin-4-yl)piperazin-2-yl)acetonitrile]",15
10,"C=CC(=O)N1CCN(c2nc(OC[C@@H]3CCCN3C)nc3c2CN(C(=O)c2c(C)ccc4[nH]ncc24)C3)C[C@@H]1CC#N [Example 31, 2-((S)-1-acryloyl-4-(6-(5-methyl-1H-indazole-4-carbonyl)-2-(((S)-1-methylpyrrolidin-2-yl)methoxy)-6,7-dihydro-5H-pyrrolo[3,4-d]pyrimidin-4-yl)piperazin-2-yl)acetonitrile]",301
11,"C=CC(=O)N1CCN(c2nc(OC[C@@H]3CCCN3C)nc3c2CN(C(=O)c2cccc4ccccc24)C3)C[C@@H]1CC#N [Example 32, 2-((S)-4-(6-(1-naphthoyl)-2-(((S)-1-methylpyrrolidin-2-yl)methoxy)-6,7-dihydro-5H-pyrrolo[3,4-d]pyrimidin-4-yl)-1-acryloylpiperazin-2-yl)acetonitrile]",39.5
12,"C=CC(=O)N1CCN(c2nc(OC[C@@H]3CCCN3C)nc3c2CN(C(=O)c2cccc4cccc(C)c24)C3)C[C@@H]1CC#N [Example 33, 2-((S)-1-acryloyl-4-(6-(8-methyl-1-naphthoyl)-2-(((S)-1-methylpyrrolidin-2-yl)methoxy)-6,7-dihydro-5H-pyrrolo[3,4-d]pyrimidin-4-yl)piperazin-2-yl)acetonitrile]",22.4
13,"C=CC(=O)N1CCN(c2nc(OC[C@@H]3CCCN3C)nc3c2CN(C(=O)c2c(C)ccc4ccccc24)C3)C[C@@H]1CC#N [Example 34, 2-((S)-1-acryloyl-4-(6-(2-methyl-1-naphthoyl)-2-(((S)-1-methylpyrrolidin-2-yl)methoxy)-6,7-dihydro-5H-pyrrolo[3,4-d]pyrimidin-4_yl)piperazin-2-yl)acetonitrile]",505
14,"C=CC(=O)N1CCN(c2nc(OC[C@@H]3CCCN3C)nc3c2CN(C(=O)c2cccc4cccc(C5CC5)c24)C3)C[C@@H]1CC#N [Example 35, 2-((S)-1-acryloyl-4-(6-(8-cyclopropyl-1-naphthoyl)-2-(((S)-1-methylpyrrolidin-2-yl)methoxy)-6,7-dihydro-5H-pyrrolo[3,4-d]pyrimidin-4-yl)piperazin-2-yl)acetonitrile]",256
15,"C=CC(=O)N1CCN(c2nc(OC[C@@H]3CCCN3C)nc3c2CN(C(=O)c2c(O)cccc2F)C3)C[C@@H]1CC#N [Example 36, 2-((S)-1-acryloyl-4-(6-(2-fluoro-6-hydroxybenzoyl)-2-(((S)-1-methylpyrrolidin-2-yl)methoxy)-6,7-dihydro-5H-pyrrolo[3,4-d]pyrimidin-4-yl)piperazin-2-yl)acetonitrile]",238
16,"C=CC(=O)N1CCN(c2nc(OC[C@@H]3CCCN3C)nc3c2CN(C(=O)c2cccc(C)c2Cl)C3)C[C@@H]1CC#N [Example 37, 2-((S)-1-acryloyl-4-(6-(2-chloro-3-methylbenzoyl)-2-(((S)-1-methylpyrrolidin-2-yl)methoxy)-6,7-dihydro-5H-pyrrolo[3,4-d]pyrimidin-4-yl)piperazin-2-yl)acetonitrile]",27.9
17,"C=CC(=O)N1CCN(c2nc(OC[C@@H]3CCCN3C)nc3c2CN(C(=O)Nc2cccc4ccccc24)C3)C[C@@H]1CC#N [Example 38, 4-((S)-4-acryloyl-3-(cyanomethyl)piperazin-1-yl)-2-(((S)-1-methylpyrrolidin-2-yl)methoxy)-N-(naphthalen-1-yl)-5,7-dihydro-6H-pyrrolo[3,4-d]pyrimidine-6-carboxamide]",1570
18,"C=CC(=O)N1CCN(c2nc(OC[C@@H]3CCCN3C)nc3c2CN(C2c4ccccc4-c4ccccc42)C3)C[C@@H]1CC#N [Example 40, 2-((S)-4-(6-(9H-fluoren-9-yl)-2-(((S)-1-methylpyrrolidin-2-yl)methoxy)-6,7-dihydro-5H-pyrrolo[3,4-d]pyrimidin-4-yl)-1-acryloylpiperazin-2-yl)acetonitrile]",1510
19,"C=CC(=O)N1CCN(c2nc(OC[C@@H]3CCCN3C)nc3c2CN(Cc2c(C)ccc4[nH]ncc24)C3)C[C@@H]1CC#N [Example 41, 2-((S)-1-acryloyl-4-(6-((5-methyl-1H-indazol-4-yl)methyl)-2-(((S)-1-methylpyrrolidin-2-yl)methoxy)-6,7-dihydro-5H-pyrrolo[3,4-d]pyrimidin-4-yl)piperazin-2-yl)acetonitrile]",77.2
20,"C=CC(=O)N1CCN(c2nc(OC[C@@H]3CCCN3C)nc3c2CN(Cc2c(O)ccc4ccccc24)C3)C[C@@H]1CC#N [Example 42, 2-((S)-1-acryloyl-4-(6-((2-hydroxynaphthalen-1-yl)methyl)-2-(((S)-1-methylpyrrolidin-2-yl)methoxy)-6,7-dihydro-5H-pyrrolo[3,4-d]pyrimidin-4-yl)piperazin-2-yl)acetonitrile]",9980
21,C=CC(=O)N1CCN(c2nc(OC[C@@H]3CCCN3C)nc3c2CN(Cc2ccccc2)C3=O)C[C@@H]1CC#N [Example 44],9010
22,C=CC(=O)N1CCN(c2nc(OC[C@@H]3CCCN3C)nc3c2CN(C2CCc4ccccc42)C3)C[C@@H]1CC#N (some centres unmarked) [Example 45],12.6
23,C=CC(=O)N1CCN(c2nc(OC[C@@H]3CCCN3C)nc3c2CN(C(=O)c2cc(O)ccc2F)C3)C[C@@H]1CC#N [Example 46],172
24,C=CC(=O)N1CCN(c2nc(OC[C@@H]3CCCN3C)nc3c2CN(C(=O)c2cc(O)ccc2C)C3)C[C@@H]1CC#N [Example 47],102
25,C=CC(=O)N1CCN(c2nc(OC[C@@H]3CCCN3C)nc3c2CN(C(=O)c2cc(N)cc4ccccc24)C3)C[C@@H]1CC#N [Example 50],6.16
26,C=CC(=O)N1CCN(c2nc(OC[C@@H]3C[C@@H](O)CN3C)nc3c2CN(C2Cc4cccc5cccc2c45)C3)C[C@@H]1CC#N (some centres unmarked) [Example 51],16.1

# From patent publication US12630552B2, “Inhibitors of KRAS G12C” (BEIGENE, LTD., priority 2019, dated 2026)
